Experimental data from US20070212690A1, “Folate Antagonists Having Improved Selectivity” (Serenex, Inc., priority 2003, published 2007).

Tests used:
DHFR = experiment: Elution of purine-binding proteins from ATP-Sepharose column with the compound; parameters: species or system porcine liver, porcine lidney, HeLa cells, whole mice; settings: lysate on ATP-Sepharose; methotrexate 10 nM to 500 μM; SDS gel, silver stain, MALDI
Description: (§1) Molecular targets for the folate antagonist methotrexate were identified as follows. Cell or tissue lysates were produced from porcine liver, porcine lidney, HeLa cells, and whole mice. This lysate was run over an ATP-Sepharose™ column in order to extract all purine-binding proteins. […] The ATP-Sepharose™ washed several times, and then eluted with methotrexate at concentrations ranging from 10 nM to 500 μM to identify proteins that bound to this compound. The eluted fractions were run on a 1-dimensional SDS polyacrylamide gel. The eluted proteins were then stained with silver stain, cut out of the gel, and identified using matrix-assisted laser deionization/ionization (MALDI). […] The experiment was also repeated using folate to elute the purine binding proteome from the ATP-Sepharose column.

glutathione synthase = experiment: as above; parameters: species or system porcine liver, porcine lidney, HeLa cells, whole mice; settings: lysate on ATP-Sepharose; methotrexate 10 nM to 500 μM; SDS gel, silver stain, MALDI
Description: as §1

pyruvate carboxylase = experiment: as above; parameters: species or system porcine liver, porcine lidney, HeLa cells, whole mice; settings: lysate on ATP-Sepharose; methotrexate 10 nM to 500 μM; SDS gel, silver stain, MALDI
Description: as §1

[1] = test system: propionyl-CoA carboxylase; experiment: as above; parameters: species or system porcine liver, porcine lidney, HeLa cells, whole mice; settings: lysate on ATP-Sepharose; methotrexate 10 nM to 500 μM; SDS gel, silver stain, MALDI
Description: as §1

biotin carboxylase = experiment: as above; parameters: species or system porcine liver, porcine lidney, HeLa cells, whole mice; settings: lysate on ATP-Sepharose; methotrexate 10 nM to 500 μM; SDS gel, silver stain, MALDI
Description: (§2) Molecular targets for the folate antagonist methotrexate were identified as follows. Cell or tissue lysates were produced from porcine liver, porcine lidney, HeLa cells, and whole mice. This lysate was run over an ATP-Sepharose™ column in order to extract all purine-binding proteins. […] The ATP-Sepharose™ washed several times, and then eluted with methotrexate at concentrations ranging from 10 nM to 500 μM to identify proteins that bound to this compound. The eluted fractions were run on a 1-dimensional SDS polyacrylamide gel. The eluted proteins were then stained with silver stain, cut out of the gel, and identified using matrix-assisted laser deionization/ionization (MALDI).

acetyl-CoA carboxylase = experiment: as above; parameters: species or system porcine liver, porcine lidney, HeLa cells, whole mice; settings: lysate on ATP-Sepharose; methotrexate 10 nM to 500 μM; SDS gel, silver stain, MALDI
Description: as §2

[2] = test system: methylcrotonyl-CoA carboxylase; experiment: as above; parameters: species or system porcine liver, porcine lidney, HeLa cells, whole mice; settings: lysate on ATP-Sepharose; methotrexate 10 nM to 500 μM; SDS gel, silver stain, MALDI
Description: as §2

[3] = test system: the same proteins that were eluted from ATP-Sepharose with methotrexate; experiment: Elution of lysate proteins from methotrexate covalently linked to agarose; type: binding, porcine liver, porcine lidney, HeLa cells, whole mice; settings: lysates applied to methotrexate covalently linked to agarose
Description: as §2

GART = experiment: Elution of purine-binding proteins from ATP-Sepharose column with the compound; settings: lysate on ATP-Sepharose; methotrexate 10 nM to 500 μM; SDS gel, silver stain, MALDI
Description: as §1

With `CN(Cc1cnc2nc(N)nc(N)c2n1)c1ccc(C(=O)N[C@@H](CCC(=O)O)C(=O)O)cc1` [methotrexate] the “DHFR eluted from ATP-Sepharose by the compound (indicates binding)” value (DHFR) was “eluted”, the “glutathione synthase eluted from ATP-Sepharose by the compound (indicates binding)” value (glutathione synthase) was “eluted” and the “pyruvate carboxylase eluted from ATP-Sepharose by the compound (indicates binding)” value (pyruvate carboxylase) was “eluted”. For the same compound, the “propionyl-CoA carboxylase eluted from ATP-Sepharose by the compound (indicates binding)” value [1] was “eluted”, the “biotin carboxylase eluted from ATP-Sepharose by the compound (indicates binding)” value (biotin carboxylase) was “eluted” and the “acetyl-CoA carboxylase eluted from ATP-Sepharose by the compound (indicates binding)” value (acetyl-CoA carboxylase) was “eluted”. The “methylcrotonyl-CoA carboxylase eluted from ATP-Sepharose by the compound (indicates binding)” value [2] was “eluted”, the “same proteins eluted from methotrexate-agarose with methotrexate (confirmation of targets)” value [3] was “also eluted from methotrexate agarose with methotrexate” and the “GART eluted from ATP-Sepharose by the compound (indicates binding)” value (GART) was “eluted”.
